# Tested on: cultured hippocampal neurons
Compound,amplitude of miniature PSCs,frequency of miniature PSCs,frequency of spontaneous IPSCs
ω-agatoxin IVA,90±7%,27±7%,–
"CC(C)NCC(O)c1ccc(O)c(O)c1 (stereo not drawn) [isoproterenol, 4-[1-hydroxy-2-(1-methylethylamino)ethyl]benzene-1,2-diol]",–,–,122±58%

# From patent US20100311767A1 (priority 2007, published 2010)
